Activity calls are given as the source filed them. The calls are words filed in the database; no cut-off is given here.
Columns and labels:
[1] = system: RAC-beta serine/threonine-protein kinase (Homo sapiens), P31751 [S474D]; assay: (§1) Inhibition of recombinant human N-terminal His6-tagged PKBbeta S474D mutant (120 to 481 residues) expressed in baculovirus infected Sf21 cells assessed as remaining activity at 1 uM using crosstide peptide as substrate incubated for 30 mins in presence of [gamma-33P]ATP by filter binding method relative to control
[2] = system: TGF-beta receptor type-1 (Homo sapiens), P36897 [T204D]; assay: as §1, with “GST-tagged TGFBR1 T204D” for “His6-tagged PKBbeta S474D”, “(200” for “(120”, “501” for “481”
[3] = molecular target: Serine/threonine-protein kinase N2 (Homo sapiens) (UniProt Q16513); assay: Inhibition of recombinant N-terminal His6/FLAG-tagged human PRK2 (501 to 984 residues) expressed in baculovirus infected Sf21 cells assessed as remaining activity at 1 uM using S6 peptide as substrate incubated for 30 mins in presence of [gamma-33P]ATP by filter binding method relative to control
[4] = molecular target: Mitogen-activated protein kinase 9 (Homo sapiens) (UniProt P45984); assay: Inhibition of recombinant human N-terminal His6-tagged JNK2 (1 to 424 residues) expressed in baculovirus infected Sf21 cells assessed as remaining activity at 1 uM using ATF2 as substrate incubated for 30 mins in presence of [gamma-33P]ATP by filter binding method relative to control
[5] = molecular target: Serine/threonine-protein kinase pim-2 (Homo sapiens) (UniProt Q9P1W9); assay: Inhibition of recombinant human N-terminal GST-tagged PIM2 (2 to 334 residues) expressed in Escherichia coli assessed as remaining activity at 1 uM using RSRHSSYPAGT as substrate incubated for 30 mins in presence of [gamma-33P]ATP by filter binding method relative to control
[6] = molecular target: Protein-tyrosine kinase 6 (Homo sapiens) (UniProt Q13882); assay: Inhibition of recombinant human N-terminal His6-tagged BRK (1 to 451 residues) expressed in baculovirus infected Sf21 cells assessed as remaining activity at 1 uM using Poly (Glu,Tyr) as substrate incubated for 30 mins in presence of [gamma-33P]ATP by filter binding method relative to control
Chain of Protein-tyrosine kinase 6 (Homo sapiens) (Q13882 whole entry, looked up, the tested form may be a part): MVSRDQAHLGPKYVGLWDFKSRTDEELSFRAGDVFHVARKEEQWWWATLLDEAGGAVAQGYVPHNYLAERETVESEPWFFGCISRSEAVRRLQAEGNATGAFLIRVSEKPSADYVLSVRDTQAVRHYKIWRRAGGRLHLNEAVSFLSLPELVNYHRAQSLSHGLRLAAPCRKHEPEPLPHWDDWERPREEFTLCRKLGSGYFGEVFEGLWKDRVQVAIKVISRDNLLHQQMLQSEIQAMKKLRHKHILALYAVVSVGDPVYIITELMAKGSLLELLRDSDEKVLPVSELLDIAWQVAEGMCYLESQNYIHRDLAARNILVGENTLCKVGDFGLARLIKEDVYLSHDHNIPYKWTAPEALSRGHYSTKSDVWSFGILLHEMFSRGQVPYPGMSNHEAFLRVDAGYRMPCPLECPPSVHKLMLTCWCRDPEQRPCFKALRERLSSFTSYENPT

[7] = molecular target: AMPK alpha1/beta2/gamma1 (Homo sapiens) (UniProt O43741+P54619+Q13131); assay: Inhibition of recombinant N-terminal His6-tagged human AMPKalpha1 (11 to 559 residues)/AMPKbeta2 (1 to 272 residues)/AMPKgamma1 (1 to 331 residues) expressed in baculovirus infected Sf21 cells assessed as remaining activity at 1 uM using SAMS as substrate incubated for 30 mins in presence of [gamma-33P]ATP relative to control
[8] = molecular target: Ephrin type-A receptor 8 (Homo sapiens) (UniProt P29322); assay: Inhibition of human EPHA8 at 1 uM using polyEy as substrate in presence of 33P-ATP by ProQinase assay
Chain of Ephrin type-A receptor 8 (Homo sapiens) (P29322 whole entry): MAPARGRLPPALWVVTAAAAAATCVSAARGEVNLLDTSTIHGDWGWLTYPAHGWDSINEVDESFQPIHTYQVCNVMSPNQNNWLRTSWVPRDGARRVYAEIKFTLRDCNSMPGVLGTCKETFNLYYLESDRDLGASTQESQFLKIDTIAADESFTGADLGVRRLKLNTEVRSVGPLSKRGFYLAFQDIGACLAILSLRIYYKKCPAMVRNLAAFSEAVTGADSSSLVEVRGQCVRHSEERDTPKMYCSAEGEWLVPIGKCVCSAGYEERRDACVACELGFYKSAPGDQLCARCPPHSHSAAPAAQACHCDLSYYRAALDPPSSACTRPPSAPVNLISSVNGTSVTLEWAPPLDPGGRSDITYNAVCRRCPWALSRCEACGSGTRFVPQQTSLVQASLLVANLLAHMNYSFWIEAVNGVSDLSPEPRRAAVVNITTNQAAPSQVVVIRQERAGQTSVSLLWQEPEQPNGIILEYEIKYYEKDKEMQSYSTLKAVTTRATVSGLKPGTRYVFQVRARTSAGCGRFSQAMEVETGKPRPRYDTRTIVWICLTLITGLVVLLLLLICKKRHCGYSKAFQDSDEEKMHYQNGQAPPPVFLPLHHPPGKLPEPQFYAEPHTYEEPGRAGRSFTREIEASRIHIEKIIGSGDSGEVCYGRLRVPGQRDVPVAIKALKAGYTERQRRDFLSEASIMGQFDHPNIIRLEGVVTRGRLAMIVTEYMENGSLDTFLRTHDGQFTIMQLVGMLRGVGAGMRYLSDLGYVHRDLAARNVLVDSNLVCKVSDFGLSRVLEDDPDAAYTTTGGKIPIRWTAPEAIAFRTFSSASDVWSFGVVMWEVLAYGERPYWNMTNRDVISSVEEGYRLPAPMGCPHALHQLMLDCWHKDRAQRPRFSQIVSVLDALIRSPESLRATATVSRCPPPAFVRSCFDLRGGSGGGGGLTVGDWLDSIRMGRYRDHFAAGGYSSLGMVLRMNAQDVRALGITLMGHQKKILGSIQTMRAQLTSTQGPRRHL

[9] = molecular target: ALK tyrosine kinase receptor (Homo sapiens) (UniProt Q9UM73); assay: Inhibition of human GST/His-tagged ALK at 1 uM using polyEY as substrate in presence of 33P-ATP by ProQinase assay
[10] = molecular target: Mitogen-activated protein kinase 8 (Homo sapiens) (UniProt P45983); assay: Inhibition of human JNK1 at 1 uM using ATF2 as substrate in presence of 33P-ATP by ProQinase assay
[11] = molecular target: RAC-gamma serine/threonine-protein kinase (Homo sapiens) (UniProt Q9Y243); assay: Inhibition of human AKT3 at 1 uM using RBER-GSK3 as substrate in presence of 33P-ATP by ProQinase assay
[12] = molecular target: Tyrosine-protein kinase receptor TYRO3 (Homo sapiens) (UniProt Q06418); assay: Inhibition of human TYRO3 at 1 uM using PolyEY as substrate in presence of 33P-ATP by ProQinase assay
Chain of Tyrosine-protein kinase receptor TYRO3 (Homo sapiens) (Q06418 whole entry): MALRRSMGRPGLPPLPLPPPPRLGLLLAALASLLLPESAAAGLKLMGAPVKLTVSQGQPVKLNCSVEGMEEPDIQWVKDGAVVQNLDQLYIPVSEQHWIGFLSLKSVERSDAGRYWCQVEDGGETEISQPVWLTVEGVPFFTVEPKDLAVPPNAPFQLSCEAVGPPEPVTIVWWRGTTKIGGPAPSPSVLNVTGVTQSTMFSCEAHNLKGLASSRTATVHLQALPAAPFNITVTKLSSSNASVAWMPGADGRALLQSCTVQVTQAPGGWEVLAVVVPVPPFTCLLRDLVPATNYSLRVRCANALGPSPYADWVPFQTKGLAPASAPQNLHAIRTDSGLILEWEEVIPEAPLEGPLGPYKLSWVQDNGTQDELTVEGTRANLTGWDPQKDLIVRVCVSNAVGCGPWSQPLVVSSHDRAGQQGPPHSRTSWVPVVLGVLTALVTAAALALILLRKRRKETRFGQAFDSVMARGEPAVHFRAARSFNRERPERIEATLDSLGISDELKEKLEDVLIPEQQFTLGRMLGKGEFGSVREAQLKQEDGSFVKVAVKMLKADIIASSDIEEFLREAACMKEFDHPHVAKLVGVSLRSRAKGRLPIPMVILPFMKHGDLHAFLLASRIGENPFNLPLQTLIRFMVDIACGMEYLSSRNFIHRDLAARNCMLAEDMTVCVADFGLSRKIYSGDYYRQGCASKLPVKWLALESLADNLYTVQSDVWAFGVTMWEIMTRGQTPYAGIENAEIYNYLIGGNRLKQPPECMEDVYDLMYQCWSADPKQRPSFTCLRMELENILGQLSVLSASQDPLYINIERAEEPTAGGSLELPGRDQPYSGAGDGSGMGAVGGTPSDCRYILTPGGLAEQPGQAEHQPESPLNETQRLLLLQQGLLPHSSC

[13] = molecular target: Cyclin-Y/Cyclin-dependent kinase 16 (Homo sapiens) (UniProt Q00536+Q8ND76); assay: Inhibition of human PCTAIRE1/CyclinY at 1 uM using RBER-GSK3 as substrate in presence of 33P-ATP by ProQinase assay; assay type: protein-complex assay
[14] = molecular target: Proto-oncogene tyrosine-protein kinase receptor Ret (Homo sapiens) (UniProt P07949); assay: Inhibition of human RET at 1 uM using polyEY as substrate in presence of 33P-ATP by ProQinase assay
[15] = molecular target: Protein kinase C epsilon type (Homo sapiens) (UniProt Q02156); assay: Inhibition of human PKCepsilon at 1 uM using 3xChocktide-PKC as substrate in presence of 33P-ATP by ProQinase assay
Chain of Protein kinase C epsilon type (Homo sapiens) (Q02156 whole entry): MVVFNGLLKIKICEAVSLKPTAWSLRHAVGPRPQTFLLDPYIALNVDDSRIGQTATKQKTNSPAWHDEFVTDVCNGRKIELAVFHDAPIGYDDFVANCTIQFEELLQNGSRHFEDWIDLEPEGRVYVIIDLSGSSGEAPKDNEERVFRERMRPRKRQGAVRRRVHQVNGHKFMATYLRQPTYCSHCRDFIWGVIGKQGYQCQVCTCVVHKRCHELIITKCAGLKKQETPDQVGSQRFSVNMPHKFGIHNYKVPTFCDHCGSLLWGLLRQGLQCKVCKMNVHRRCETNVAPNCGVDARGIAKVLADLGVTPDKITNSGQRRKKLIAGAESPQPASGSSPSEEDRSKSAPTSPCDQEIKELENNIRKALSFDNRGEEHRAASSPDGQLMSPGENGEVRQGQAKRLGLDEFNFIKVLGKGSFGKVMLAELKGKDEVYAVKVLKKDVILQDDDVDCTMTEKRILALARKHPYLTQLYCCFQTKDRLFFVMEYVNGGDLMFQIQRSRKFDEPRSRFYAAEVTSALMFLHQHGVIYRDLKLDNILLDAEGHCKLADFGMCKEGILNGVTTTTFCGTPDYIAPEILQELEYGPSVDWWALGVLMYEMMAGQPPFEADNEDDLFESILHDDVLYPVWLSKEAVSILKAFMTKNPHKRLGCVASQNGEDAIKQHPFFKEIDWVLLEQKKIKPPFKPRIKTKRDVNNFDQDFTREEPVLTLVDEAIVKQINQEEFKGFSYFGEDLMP

[16] = molecular target: Tyrosine-protein kinase Srms (Homo sapiens) (UniProt Q9H3Y6); assay: Inhibition of human SRMS at 1 uM using PolyEY as substrate in presence of 33P-ATP by ProQinase assay
[17] = molecular target: Serine/threonine-protein kinase TBK1 (Homo sapiens) (UniProt Q9UHD2); assay: Inhibition of human TBK1 at 1 uM using casein as substrate in presence of 33P-ATP by ProQinase assay
Chain of Serine/threonine-protein kinase TBK1 (Homo sapiens) (Q9UHD2 whole entry): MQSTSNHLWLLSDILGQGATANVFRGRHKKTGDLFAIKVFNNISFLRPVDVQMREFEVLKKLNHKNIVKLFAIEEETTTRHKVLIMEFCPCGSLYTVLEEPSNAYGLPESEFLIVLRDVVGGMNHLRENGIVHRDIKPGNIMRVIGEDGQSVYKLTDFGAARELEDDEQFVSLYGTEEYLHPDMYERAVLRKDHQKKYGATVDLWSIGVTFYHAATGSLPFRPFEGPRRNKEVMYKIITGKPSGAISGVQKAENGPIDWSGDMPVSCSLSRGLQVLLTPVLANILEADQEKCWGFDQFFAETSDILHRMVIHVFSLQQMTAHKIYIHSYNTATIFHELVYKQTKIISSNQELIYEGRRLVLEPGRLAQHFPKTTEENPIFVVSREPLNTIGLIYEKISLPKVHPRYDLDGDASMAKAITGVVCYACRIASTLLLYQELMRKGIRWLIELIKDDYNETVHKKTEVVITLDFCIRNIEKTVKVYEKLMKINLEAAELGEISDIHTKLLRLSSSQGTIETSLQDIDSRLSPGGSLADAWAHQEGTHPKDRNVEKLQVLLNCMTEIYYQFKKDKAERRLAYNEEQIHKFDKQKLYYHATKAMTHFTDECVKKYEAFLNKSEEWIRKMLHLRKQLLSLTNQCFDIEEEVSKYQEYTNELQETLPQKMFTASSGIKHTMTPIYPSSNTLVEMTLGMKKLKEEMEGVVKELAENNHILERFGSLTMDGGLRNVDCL

[18] = molecular target: Ephrin type-B receptor 2 (Homo sapiens) (UniProt P29323); assay: Inhibition of human EPHB2 at 1 uM using poly(Ala,Glu,Lys,Tyr) as substrate in presence of 33P-ATP by ProQinase assay
Chain of Ephrin type-B receptor 2 (Homo sapiens) (P29323 whole entry): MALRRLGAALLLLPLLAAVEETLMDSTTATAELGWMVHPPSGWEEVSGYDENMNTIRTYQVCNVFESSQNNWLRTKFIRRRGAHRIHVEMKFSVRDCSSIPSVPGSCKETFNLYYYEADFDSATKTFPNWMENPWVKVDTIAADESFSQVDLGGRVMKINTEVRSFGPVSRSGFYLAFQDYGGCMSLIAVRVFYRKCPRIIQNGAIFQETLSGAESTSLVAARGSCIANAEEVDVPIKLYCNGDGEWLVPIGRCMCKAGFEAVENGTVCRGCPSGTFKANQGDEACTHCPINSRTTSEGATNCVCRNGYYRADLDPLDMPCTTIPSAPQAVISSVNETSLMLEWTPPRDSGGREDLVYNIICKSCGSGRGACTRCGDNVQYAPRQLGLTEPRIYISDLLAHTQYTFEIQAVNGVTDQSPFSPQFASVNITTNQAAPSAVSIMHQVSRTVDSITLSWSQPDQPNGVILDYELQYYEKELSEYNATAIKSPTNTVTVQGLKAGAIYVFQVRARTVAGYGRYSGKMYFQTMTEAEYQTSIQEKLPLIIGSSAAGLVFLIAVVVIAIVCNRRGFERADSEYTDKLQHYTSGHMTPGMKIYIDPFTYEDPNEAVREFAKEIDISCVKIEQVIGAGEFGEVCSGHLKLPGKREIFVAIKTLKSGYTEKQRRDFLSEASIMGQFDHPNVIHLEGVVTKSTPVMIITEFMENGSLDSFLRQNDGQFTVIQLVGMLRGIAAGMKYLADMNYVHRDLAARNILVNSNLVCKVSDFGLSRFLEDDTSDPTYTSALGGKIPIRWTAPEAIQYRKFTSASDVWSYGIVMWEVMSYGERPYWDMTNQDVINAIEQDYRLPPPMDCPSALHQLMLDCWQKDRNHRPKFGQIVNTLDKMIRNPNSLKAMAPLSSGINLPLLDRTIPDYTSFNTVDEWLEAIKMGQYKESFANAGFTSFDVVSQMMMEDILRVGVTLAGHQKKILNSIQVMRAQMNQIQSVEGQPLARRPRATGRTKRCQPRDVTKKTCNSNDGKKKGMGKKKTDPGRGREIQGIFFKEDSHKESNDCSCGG

[19] = molecular target: Serine/threonine-protein kinase WNK3 (Homo sapiens) (UniProt Q9BYP7); assay: Inhibition of human WNK3 at 1 uM using RB-S6P as substrate in presence of 33P-ATP by ProQinase assay
[20] = molecular target: Serine/threonine-protein kinase NLK (Homo sapiens) (UniProt Q9UBE8); assay: Inhibition of human NLK at 1 uM using RBER-GSK3 as substrate in presence of 33P-ATP by ProQinase assay
[21] = molecular target: Mitogen-activated protein kinase kinase kinase 3 (Homo sapiens) (UniProt Q99759); assay: Inhibition of human MEKK3 at 1 uM using casein as substrate in presence of 33P-ATP by ProQinase assay
[22] = molecular target: G protein-coupled receptor kinase 4 (Homo sapiens) (UniProt P32298); assay: Inhibition of human GRK4 at 1 uM using casein as substrate in presence of 33P-ATP by ProQinase assay
[23] = molecular target: Activin receptor type-1-like (Homo sapiens) (UniProt P37023); assay: Inhibition of human ACVRL1 at 1 uM using casein as substrate in presence of 33P-ATP by ProQinase assay
[24] = molecular target: Sphingosine kinase 2 (Homo sapiens) (UniProt Q9NRA0); assay: Inhibition of recombinant human N-terminal His6-tagged SPHK2 (1 to 654 residues) expressed in baculovirus expression system at 1 uM using sphingosine as substrate incubated for 40 mins by ADP-Glo assay
[25] = molecular target: Phosphatidylinositol 5-phosphate 4-kinase type-2 alpha (Homo sapiens) (UniProt P48426); assay: Inhibition of recombinant human N-terminal His6-tagged PIP5K2alpha (1 to 406 residues) expressed in Escherichia coli at 1 uM using diC8 PI(5)P as substrate incubated for 40 mins by ADP-Glo assay
[26] = molecular target: Phosphatidylinositol 4-phosphate 5-kinase type-1 alpha (Homo sapiens, UniProt Q99755); assay: Inhibition of human PIP5K1A using PI/PS as substrate by ADP-Glo assay

## CC(C)(O)CNc1ncc(-c2ccnc(Nc3ccnc(Cl)c3)n2)c(CC2CC2)n1
[1]
  Activity: 123%
[2]
  Activity: 123%
[3]
  Activity: 116%
[4]
  Activity: 113%
[5]
  Activity: 113%
[6]
  Activity: 103%
[7]
  Activity: 96%
[8]
  inhibition: inactive
[9]
  inhibition: inactive
[10]
  inhibition: inactive
[11]
  inhibition: inactive
[12]
  inhibition: inactive
[13]
  inhibition: inactive
[14]
  inhibition: inactive
[15]
  inhibition: inactive
[16]
  inhibition: inactive
[17]
  inhibition: inactive
[18]
  inhibition: inactive
[19]
  inhibition: inactive
[20]
  inhibition: inactive
[21]
  inhibition: inactive
[22]
  inhibition: inactive
[23]
  inhibition: inactive
[24]
  inhibition: inactive
[25]
  inhibition: inactive
[26]
  IC50: 4.93 µM

— ChEMBL document CHEMBL5705899 (Biochem J, 2014)
